Reference: US11541041B1, “Compounds that interact with the Ras superfamily for the treatment of cancers, inflammatory diseases, Rasopathies, and fibrotic disease” (Shy Therapeutics LLC, priority 2017, dated 2023)
Read-outs that look alike come from different tables or passages of the source.

Key:
[1] = test system: TNFα; test: Mouse TNF alpha quantification assay (LPS-stimulated RAW 264.7, ELISA); type: cell-based; conditions: RAW 264.7 murine leukemia virus transformed macrophage cell lines, LPS stimulation; for inhibition at 30 µM: Mus musculus, RAW264.7, 30 μM, read-out: TNF-α % Inhibition at 30 μM
Method: (§1) Cell lines: Abelson murine leukemia virus transformed macrophage cell line RAW 264.7 was purchased from ATCC and grown in complete DMEM-High Glucose medium supplemented with penicillin (100 U/mL), streptomycin (100 μg/mL), and 10% heat-inactivated FBS at 37° C. in a humidified incubator with 5% CO2.
(§2) Method: Cells were plated at 40000 cells/well density in a 96-wells plate. After a 3-hour incubation, macrophages were starved with DMEM plus 0.5% FBS o/n. The next day the small molecules to be tested were added to the cells in the final concentration of 30 μM (with 0.3% DMSO) 3 hours prior to LPS stimulation (100 ng/ml). After LPS stimulation cells were incubated at 37° C. for 16h. At the end of the incubation period, culture media were collected and production of LPS-induced TNFα and IL6 cytokine was measured using ELISA detection kits.
(§3) Sandwich ELISA: The ELISA Immunoassays Quantikine Mouse TNF-alpha (catalog number MTA00B) and IL6 (catalog number M6000B) were purchased from R&D Systems Inc., Minneapolis, Minn. These 4.5 hours solid phase ELISAs were used to measure mouse TNFα or IL6 levels in macrophages culture supernatants. Assays were executed according to the manufacturer specifications.

[2] = test system: IL6; test: Mouse IL6 quantification assay (LPS-stimulated RAW 264.7, ELISA); type: cell-based; conditions: RAW 264.7 murine leukemia virus transformed macrophage cell lines, LPS stimulation; for inhibition at 30 µM: Mus musculus, RAW264.7, 30 μM, read-out: IL-6 % Inhibition at 30 μM
Method: as §1, §2, §3

[3] = biological target: KRas G12D/Q61H double mutant (Homo sapiens (Human), UniProt P01116, G12D/Q61H); test: Ras GTP binding domain inhibition assay
Method: (§4) Buffer-I: • 50 mM Tris, pH 7.5 • 150 mM NaCl (optional) • 1 mM MgCl2 • 1 mM DTT. • KRas G12D mutant protein was expressed as a His-tagged protein. Purified His-KRas G12D protein was diluted in buffer-I to a final concentration of 3-10 μg/ml. • 200 μl of the diluted His-KRas G12D protein was added to a nickel coated 96 well plate and incubated overnight at 4° C. • The next day, wells were washed 3× in 200 μl of Buffer-I. • Then 200 μl of Buffer-I were added to each well in the presence of 1% DMSO. • Tested compounds were added to the protein-coated wells at a concentration of 20 μM, and incubated for 3 hours at room temperature. While performing IC50 measurements a serial dilution of all tested concentrations was prepared.
(§5) Then 22 μl of Cy3-GTP or Cy5-GTP was added to each well. The labeled GTP was incubated for 45 min. at room temperature. • Following GTP incubation, wells were washed 3× in Buffer-I, and 200 μl of Buffer-I were added to each well. • Following washes, the amount of bound labeled-GTP was measured with an Eppendorf AF2200 plate reader.
By substituting KRas G12D mutant protein with KRas G12C mutant, KRas wild type, KRas Q61H mutant, KRas G12D/Q61H double mutant or KRas G12C/Q61H double mutant under the assay conditions described above, KRas G12C mutant KRas wild type, KRas Q61H mutant, KRas G12D/Q61H double mutant and KRas G12C/Q61H double mutant inhibition, respectively, were each determined.

[4] = biological target: Rho-A (Homo sapiens (Human), UniProt P61586); test: Rac and Rho inhibition assay; type: binding; conditions: read-out: Rho-A % Inh.
Method: as §4, §5
(§6) By substituting KRas G12D mutant protein with either Rac-1 or Rho-A under the assay conditions described in Example 5, Rac-1 and Rho-A inhibition, respectively, were each determined.

[5] = biological target: Rac-1 (Homo sapiens (Human), UniProt P63000); test: Rac and Rho inhibition assay; type: binding; conditions: read-out: Rac-1 % Inh.
Method: as §4, §5, §6

[6] = 20 μM, read-out: KRas G12D Q61H % Inh.
[7] = 20 μM compound, read-out: % Inhibition at 20 μM, KRas G12D Q61H
[8] = at 20 μM, read-out: KRas G12D Q61H % Inh.

Sequence of Rho-A (P61586 whole entry): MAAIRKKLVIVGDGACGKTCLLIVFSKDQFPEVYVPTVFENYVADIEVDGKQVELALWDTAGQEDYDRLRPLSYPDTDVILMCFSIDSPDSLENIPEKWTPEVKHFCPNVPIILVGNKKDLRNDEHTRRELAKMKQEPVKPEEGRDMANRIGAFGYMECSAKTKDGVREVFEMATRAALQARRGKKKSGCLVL
Sequence of KRas G12D/Q61H double mutant (P01116-2 other isoform, or with tags, fused parts or gaps G12D/Q61H): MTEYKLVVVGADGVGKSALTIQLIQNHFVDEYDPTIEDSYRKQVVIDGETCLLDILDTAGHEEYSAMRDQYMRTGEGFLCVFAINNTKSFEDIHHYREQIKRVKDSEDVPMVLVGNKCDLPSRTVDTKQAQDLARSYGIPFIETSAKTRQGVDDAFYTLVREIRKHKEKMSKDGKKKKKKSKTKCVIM

SMILES | inhibition at 20 µM [3, 7] [%] | inhibition at 30 µM [1] [%] | inhibition at 30 µM [2] [%] | other results
Cn1cc(-c2nc(C(=O)Nc3nnc(-c4ccccn4)[nH]3)cs2)cn1 |  | 0 |  | 
Cc1ccc(CC(=O)Nc2nnc(-c3ccccn3)[nH]2)cc1 |  |  | 51 to 75 | 
Cc1sc2c(O)nc(-c3ccccn3)nc2c1-c1ccccc1 |  |  |  | TNF-α % Inhibition at 30 μM ([1]; 30 μM): A (A = 1-25% inhibition); IL-6 % Inhibition at 30 μM ([2]; 30 μM): C (C = 51-75% inhibition)
COC(=O)c1csc2nc(-c3ccccn3)nc(O)c12 |  | 0 | 51 to 75 | 
O=C(O)c1csc2nc(-c3ccccn3)nc(O)c12 |  | 1 to 25 | 1 to 25 | 
Oc1nc(-c2ccccn2)nc2c(-c3cccnc3)c(C(F)(F)F)sc12 |  | 0 | 51 to 75 | 
Nc1nc(-c2ccccn2)nc2c(C3CCCCC3)csc12 |  | 0 | 0 | 
Nc1nc(-c2ccccn2)nc2c(C3CCCC3)csc12 |  | 26 to 50 | 51 to 75 | 
CC(C)Cc1csc2c(N)nc(-c3ccccn3)nc12 |  | 76 to 100 | 76 to 100 | 
Nc1cccc(-c2csc3c(N)nc(-c4ccccn4)nc23)n1 |  | 26 to 50 | 76 to 100 | 
Cc1sc2c(N)nc(-c3ccccn3)nc2c1-c1ccccc1Cl |  | 51 to 75 | 51 to 75 | 
COCC(C)Nc1nc(-c2ccccc2)nc2sc(-c3ccncc3)c(-c3ccccc3)c12 (centres unmarked) |  | 26 to 50 | 0 | 
O=c1nc(-c2ccccn2)[nH]c2ccsc12 |  |  |  | inhibition at 20 µM [3, 6]: 51 to 75%
O=[N+]([O-])c1cc(C(F)(F)F)ccc1Sc1nc2c(c(C(F)(F)F)n1)CCCC2 |  |  |  | inhibition at 20 µM [3, 6]: 51 to 75%
CCOC(=O)c1ccnc(N2CCC(C)CC2c2ccc(CC)o2)c1[N+](=O)[O-] (centres unmarked) |  |  |  | inhibition at 20 µM [3, 6]: 51 to 75%
O=C(c1ccc(S(=O)(=O)N2CCOCC2)cc1)N(Cc1ccccc1)Cc1cccs1 | 1 to 25 |  |  | 
COc1ccc(N2CCN(C(=O)c3csc4c(O)cc(-c5ccccn5)cc34)CC2)cc1O |  |  |  | inhibition at 20 µM [3, 8]: 1 to 25%; inhibition at 20 µM [4]: 76 to 100%; inhibition at 20 µM [5]: 76 to 100%
O=C(c1csc2c(O)nc(-c3ccccn3)nc12)N1CCN(c2ccc(O)c(O)c2)CC1 |  |  |  | inhibition at 20 µM [3, 8]: 51 to 75%; inhibition at 20 µM [4]: 76 to 100%; inhibition at 20 µM [5]: 76 to 100%
O=C(c1csc2c(O)nc(-c3ccccn3)nc12)N1CCNC(c2ccc(O)cc2)C1 (centres unmarked) |  |  |  | inhibition at 20 µM [4]: 76 to 100%; inhibition at 20 µM [5]: 76 to 100%
COCCCCNC(=O)c1csc2nc(-c3ccccn3)nc(O)c12 |  |  |  | inhibition at 20 µM [3, 8]: 1 to 25%; inhibition at 20 µM [4]: 1 to 25%; inhibition at 20 µM [5]: 1 to 25%

The next lines start with results.

inhibition at 20 µM [3, 7] [%] | SMILES | inhibition at 30 µM [1] [%] | inhibition at 30 µM [2] [%] | other results
25 to 50 | CCC1=CC2C(=O)NC(c3ccccn3)=NC2S1 (centres unmarked) |  |  | 
25 to 50 | O=c1[nH]c(-c2cncc(OCC(F)F)c2)nc2cc(F)c(F)cc12 |  |  | 
25 to 50 | CN(C(=O)c1ccc(COc2ccccc2F)o1)c1cccs1 |  |  | 
25 to 50 | C=C(CNc1nc(-c2ccccn2)nc2scc(-c3ccccc3)c12)NC |  |  | 
25 to 50 | CCN(Cc1cnc(S(=O)(=O)N(C)C)o1)c1ccccc1 |  |  | 
25 to 50 | CCOc1ccc(C(F)(F)F)cc1NCc1ncc(C)o1 |  |  | 
25 to 50 | FC(F)(F)c1cccc(N2CCN(c3cc(Cl)nc4ncnn34)CC2)c1 |  |  | 
1 to 25 | CCOC(=O)c1cnc(N(C2CC2)S(=O)(=O)c2ccc(OC)c(C)c2)s1 |  |  | 
25 to 50 | C=CCc1cc(COC)ccc1OCC(=O)NCc1ccc(OC)cc1 |  |  | 
25 to 50 | O=C1C2C=CC=CC2OC(O)C1Cc1cc(Cl)c2cccnc2c1O (centres unmarked) |  |  | 
